Assays:
sialidase BT0455 = experiment: Sialidase activity in murine fecal samples (pNP-SA hydrolysis, LC-MS); format: in vivo, Bacteroides thetaiotaomicron; settings: mice carrying Bt^RS
Description: Groups of 6 germ-free Swiss Webster mice were orally gavaged with 1×10^9 CFU of the desired B. thetaiotaomicron strain. Fecal samples (˜100-200 mg) were collected daily for 12 days. aTC (100 μg/mL) was administered in drinking water for 12 hours after fecal collection on day 1. Fecal samples were homogenized in 1 mL of 1× tris-buffered saline (TBS) with a single 5 mm stainless steel bead using a bead beater (BioSpec Products) at 26° C. for 1 minute on the high setting, followed by vortexing at top speed for 8 minutes. Samples were then centrifuged at 500×g for 1 minute to pellet fibrous and insoluble matter. […]
Bacterial cells (collected and stored as described above) were lysed through one round of freeze-thaw followed by nutation for 10 minutes at 26° C. […] Quantification of the enzyme reaction product, p-nitrophenol (pNP), was identical to the LC-MS analysis of aTC described above, but with reduced injection volume (5 μL) and methanol replacing acetonitrile as solvent B for the reversed phase chromatography. […] Linear fit values were normalized to amount of protein in the cellular lysates added to each reaction, which was determined by Bradford. […]

[1] = tested on: Bt::tetR P1TDP^GH023-NanoLuc; experiment: Fecal luminescence in monocolonized gnotobiotic mice; format: in vivo
Description: Germ-free Swiss Webster mice were orally gavaged with 1×10^9 CFU of Bt::tetR P1TDP^GH023-NanoLuc and colonization was allowed to stabilize for at least 7 days prior to the start of the experiment. Fecal pellets were collected every day, and groups of mice were given aTC in the drinking water at various concentrations for 48 hours after stool collection on Day 3 and Day 17. Mice belonging to the same treatment group were co-housed for the duration of the experiment. To obtain samples for luminescence production, fecal pellets and intestinal lumen (˜100-200 mg) were homogenized in 1 mL of 1×PBS with a single 5 mm stainless steel bead using a bead beater (BioSpec Products) at 26° C. for 1 minute on the high setting, followed by vortexing at top speed for 8 minutes. Samples were centrifuged at 500×g for 1 minute to pellet fibrous and insoluble matter. The supernatant was used for CFU determination by plating dilutions on BHI-blood agar plates containing gentamicin and erythromycin, and 500 μL was used for luminescence measurements (described below).
(§1) The 500 μL collected from the resuspended fecal supernatant was centrifuged at 21,130×g for 3 minutes to pellet bacterial cells, which were then resuspended in 50 μL 1× BugBuster (Novagen) in 1×PBS and lysed by one round of freeze-thaw and 10 minutes of nutation at 26° C. Samples were centrifuged at 21,130×g for 10 minutes at 4° C., and 10 μL of the supernatant was mixed with an equal volume of NanoLuc Reaction Buffer to induce luminescence production. Luminescence was measured after a 5 minute incubation at 26° C. on a plate reader (BioTek Synergy H1) with an integration time of 1 second at a gain setting of 100. Luminescence values were normalized to colony forming units (CFUs) determined by dilution plating of the resuspended fecal supernatant on BHI-blood agar plates containing gentamicin and erythromycin.

[2] = tested on: Bt::tetR P1TDP^GH023-NanoLuc; format: in vivo, mice
Description: 8-10 week old SPF Rag^−/− mice (Jackson Laboratories) (n=7) were colonized by oral gavage with 1×10^9 CFU of B. thetaiotaomicron TetR-P1TDP^GH023-NanoLuc. Fecal pellets were collected daily after gavage and processed as described above. The supernatant was used for CFU determination by plating dilutions on BHI-blood agar plates containing gentamicin and erythromycin, and 500 μL was used for luminescence measurements (described below).
as §1

SMILES: Cc1c2c(c(O)c3c(O)cccc13)C(=O)[C@]1(O)C(=O)C(C(N)=O)=C(O)[C@@H](N(C)C)[C@@H]1C2 [aTC, Anhydrotetracycline]
- growth of Bacteroides in aTC (Bacteroides): grow at wildtype rates
- sialidase activity again undetectable after aTC removal (sialidase BT0455): 4 days
- impact on B. thetaiotaomicron stability in the gut ([1]; CFU): do not impact B. thetaiotaomicron stability in the gut
- aTC concentration at which detectable responses start ([1]; drinking water, within 24 hours): 0.2 to 0.5 µg/mL
- complete repression after aTC removal ([1]; monocolonized mice): 9 days
- increase of luminescence in fecal pellets ([1]; monocolonized mice, within 24 hours of aTC addition): ~1,000 fold
- range of commensal gene expression modulated inside the gut by varying aTC concentrations ([1]; mouse, in vivo): 3 orders of magnitude
- aTC concentration providing maximal gene induction in vivo ([1]; sigmoidal fit): 100 µg/mL
- return of fecal luminescence to baseline after aTC removal ([2]; SPF Rag-/- mice): 3 days
- increase in fecal luminescence ([2]; SPF Rag-/- mice, aTC in drinking water for 48 hours): 4,800 fold
- effect on stability of B. thetaiotaomicron in a complete murine microbiota ([2]; mouse, in vivo): does not affect the stability of B. thetaiotaomicron
